Data from ChEMBL document CHEMBL5370540, “Discovery of pyrimidine-5-carboxamide derivatives as novel salt-inducible kinases (SIKs) inhibitors for inflammatory bowel disease (IBD) treatment” (Eur J Med Chem, 2023).
pIC50: −log10 of the molar value. Activity calls are given as the source filed them. No cut-off for these calls is given here.

Legend:
[1] = molecular target: Serine/threonine-protein kinase SIK1 (Homo sapiens, UniProt P57059); experiment: Inhibition of SIK1 (unknown origin)
[2] = Cmax in Sprague-Dawley rat at 5 mg/kg, iv measured upto 24 hrs by LC/MS/MS analysis; format: ADME, organism-based; set-up: dose 5 mg/kg, time < 24 hrs, route iv; settings: in vivo
Mus musculus [3] = experiment: Antiinflammatory activity in DSS-induced colitis C57BL/6J mouse model assessed as increase in colon length at 50 to 100 mg/kg, po measured after 12 days; format: functional, organism-based; settings: dose 50-100 mg/kg, time 12.0 day
Mus musculus [4] = experiment: Antiinflammatory activity in DSS-induced colitis C57BL/6J mouse model assessed as increase in body weight at 7.5 to 30 mg/kg, ip; format: functional, organism-based; settings: dose 7.5-30 mg/kg
[5] = molecular target: Cytoplasmic tyrosine-protein kinase BMX (Homo sapiens) (UniProt P51813); experiment: Inhibition of Bmx (unknown origin) at 1 uM
[6] = molecular target: Serine/threonine-protein kinase SIK2 (Mus musculus) (UniProt Q8CFH6); experiment: Inhibition of SIK2 in C57BL/6J mouse BMDM cells assessed as increase in Nurr77 mRNA level at 500 nM preincubated for 1 hr followed by LPS stimulation measured for 2 to 4 hrs by qPCR analysis; format: cell-based; settings: time 3-5 hrs
[7] = molecular target: Tyrosine-protein kinase Tec (Homo sapiens) (UniProt P42680); experiment: Inhibition of Tec (unknown origin) at 1 uM
[8] = molecular target: Serine/threonine-protein kinase SIK2 (Mus musculus) (UniProt Q8CFH6); experiment: Inhibition of SIK2 in C57BL/6J mouse BMDM cells assessed as increase in Nurr77 mRNA level at 500 nM preincubated for 1 hr followed by LPS stimulation measured for 1 hr by qPCR analysis; format: cell-based; settings: time 2.0 hrs
[9] = Oral bioavailability in Sprague-Dawley rat at 10 mg/kg measured upto 24 hrs by LC/MS/MS analysis; format: ADME, organism-based; settings: in vivo
[10] = Half life in Sprague-Dawley rat at 10 mg/kg, po measured upto 24 hrs by LC/MS/MS analysis; format: ADME, organism-based; settings: in vivo
[11] = Clearance in Sprague-Dawley rat at 10 mg/kg, po measured upto 24 hrs by LC/MS/MS analysis; format: ADME, organism-based; settings: in vivo
[12] = molecular target: Serine/threonine-protein kinase SIK2 (Mus musculus) (UniProt Q8CFH6); experiment: Inhibition of SIK2 in C57BL/6J mouse BMDM cells assessed as increase in arginase 1 mRNA level at 500 nM preincubated for 1 hr followed by LPS stimulation measured upto 8 hrs by qPCR analysis; format: cell-based; settings: time <= 9.0 hrs
[13] = Clearance in Sprague-Dawley rat at 5 mg/kg, iv measured upto 24 hrs by LC/MS/MS analysis; format: ADME, organism-based; settings: in vivo
[14] = Metabolic stability in human liver microsomes assessed as half life; format: ADME, Microsome
[15] = molecular target: Tyrosine-protein kinase Blk (Homo sapiens) (UniProt P51451); experiment: Inhibition of BlK (unknown origin) at 1 uM
[16] = molecular target: Serine/threonine-protein kinase SIK2 (Mus musculus) (UniProt Q8CFH6); experiment: Inhibition of SIK2 in C57BL/6J mouse BMDM cells assessed as increase in IL-10 mRNA level at 500 nM preincubated for 1 hr followed by LPS stimulation measured for 1 hr by qPCR analysis; format: cell-based; settings: time 2.0 hrs
[17] = AUC (0 to t) in Sprague-Dawley rat at 10 mg/kg, po measured upto 24 hrs by LC/MS/MS analysis; format: ADME, organism-based; set-up: dose 10 mg/kg, time < 24 hrs, route po; settings: in vivo
[18] = Protein binding in human plasma at 10 uM measured for 8 hrs by dialysis method; format: ADME, cell-free; settings: read-out: PPB (converted)
[19] = Tmax in Sprague-Dawley rat at 5 mg/kg, iv measured upto 24 hrs by LC/MS/MS analysis; format: ADME, organism-based; settings: in vivo
[20] = molecular target: Tyrosine-protein kinase ABL1 (Homo sapiens) (UniProt P00519); experiment: Inhibition of Abl (unknown origin) at 1 uM
[21] = molecular target: Serine/threonine-protein kinase SIK2 (Mus musculus) (UniProt Q8CFH6); experiment: Inhibition of SIK2 in C57BL/6J mouse BMDM cells assessed as increase in LIGHT mRNA level at 500 nM preincubated for 1 hr followed by LPS stimulation measured upto 8 hrs by qPCR analysis; format: cell-based; settings: time <= 9.0 hrs
[22] = molecular target: Tyrosine-protein kinase FRK (Homo sapiens) (UniProt P42685); experiment: Inhibition of PTK5 (unknown origin) at 1 uM
[23] = Selectivity ratio of IC50 for SIK1 (unknown origin) to IC50 for SIK2 (unknown origin)
[24] = Half life in Sprague-Dawley rat at 5 mg/kg, iv measured upto 24 hrs by LC/MS/MS analysis; format: ADME, organism-based; settings: in vivo
[25] = molecular target: Serine/threonine-protein kinase SIK2 (Mus musculus) (UniProt Q8CFH6); experiment: Inhibition of SIK2 in C57BL/6J mouse BMDM cells assessed as increase in IL-12 mRNA level at 500 nM preincubated for 1 hr followed by LPS stimulation measured after 8 hrs by qPCR analysis; format: cell-based; settings: time 9.0 hrs
[26] = AUC (0 to t) in Sprague-Dawley rat at 5 mg/kg, iv measured upto 24 hrs by LC/MS/MS analysis; format: ADME, organism-based; set-up: time < 24 hrs, dose 5 mg/kg, route iv; settings: in vivo
[27] = Tmax in Sprague-Dawley rat at 10 mg/kg, po measured upto 24 hrs by LC/MS/MS analysis; format: ADME, organism-based; settings: in vivo
[28] = Toxicity in DSS-induced colitis C57BL/6J mouse model at 30 mg/kg, ip; format: organism-based; settings: in vivo
[29] = molecular target: Proto-oncogene tyrosine-protein kinase Src (Homo sapiens) (UniProt P12931); experiment: Inhibition of SRC (1 to 530 residues)(unknown origin) at 1 uM
Chain of Proto-oncogene tyrosine-protein kinase Src (Homo sapiens) (P12931 2-536 limits assumed): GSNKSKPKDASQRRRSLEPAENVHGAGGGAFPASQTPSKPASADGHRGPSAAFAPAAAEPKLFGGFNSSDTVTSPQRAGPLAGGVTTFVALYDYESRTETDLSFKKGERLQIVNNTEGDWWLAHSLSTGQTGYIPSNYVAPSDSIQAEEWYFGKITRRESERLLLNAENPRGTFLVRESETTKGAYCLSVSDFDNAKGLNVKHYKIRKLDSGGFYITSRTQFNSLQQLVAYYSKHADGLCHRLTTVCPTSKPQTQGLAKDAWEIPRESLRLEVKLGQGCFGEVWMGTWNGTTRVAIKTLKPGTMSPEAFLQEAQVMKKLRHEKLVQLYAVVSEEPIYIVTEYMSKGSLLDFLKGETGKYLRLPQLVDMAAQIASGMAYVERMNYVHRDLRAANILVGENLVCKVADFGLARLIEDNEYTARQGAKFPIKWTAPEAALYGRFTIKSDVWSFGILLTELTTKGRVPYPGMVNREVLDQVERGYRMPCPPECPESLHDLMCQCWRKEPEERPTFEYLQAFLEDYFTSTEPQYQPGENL

Chain of Serine/threonine-protein kinase SIK2 (Mus musculus) (Q8CFH6 whole entry): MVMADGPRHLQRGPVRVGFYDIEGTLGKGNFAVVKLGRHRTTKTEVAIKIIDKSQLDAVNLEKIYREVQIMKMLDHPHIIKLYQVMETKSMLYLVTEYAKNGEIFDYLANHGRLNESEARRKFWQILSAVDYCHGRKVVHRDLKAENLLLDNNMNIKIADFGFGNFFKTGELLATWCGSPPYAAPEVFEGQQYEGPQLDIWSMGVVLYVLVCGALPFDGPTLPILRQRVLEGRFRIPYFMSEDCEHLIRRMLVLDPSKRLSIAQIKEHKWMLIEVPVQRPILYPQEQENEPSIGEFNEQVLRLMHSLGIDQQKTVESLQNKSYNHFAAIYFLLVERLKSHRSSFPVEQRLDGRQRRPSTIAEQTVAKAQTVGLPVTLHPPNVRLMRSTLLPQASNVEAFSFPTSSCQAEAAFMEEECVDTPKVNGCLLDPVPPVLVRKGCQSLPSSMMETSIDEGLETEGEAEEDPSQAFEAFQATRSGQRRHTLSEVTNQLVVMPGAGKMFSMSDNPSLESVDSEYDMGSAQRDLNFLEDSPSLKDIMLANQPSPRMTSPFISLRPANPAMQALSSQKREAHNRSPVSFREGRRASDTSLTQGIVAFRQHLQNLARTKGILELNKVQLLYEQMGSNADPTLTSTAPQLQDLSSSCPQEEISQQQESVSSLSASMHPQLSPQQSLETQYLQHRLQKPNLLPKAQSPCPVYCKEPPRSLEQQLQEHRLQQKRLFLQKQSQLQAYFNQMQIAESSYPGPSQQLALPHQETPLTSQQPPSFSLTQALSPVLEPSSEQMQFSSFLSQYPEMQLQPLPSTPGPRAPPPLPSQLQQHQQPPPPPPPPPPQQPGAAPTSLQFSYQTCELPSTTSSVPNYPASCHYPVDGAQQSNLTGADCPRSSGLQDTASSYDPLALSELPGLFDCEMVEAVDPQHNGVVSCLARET
Chain of Serine/threonine-protein kinase SIK1 (P57059 whole entry): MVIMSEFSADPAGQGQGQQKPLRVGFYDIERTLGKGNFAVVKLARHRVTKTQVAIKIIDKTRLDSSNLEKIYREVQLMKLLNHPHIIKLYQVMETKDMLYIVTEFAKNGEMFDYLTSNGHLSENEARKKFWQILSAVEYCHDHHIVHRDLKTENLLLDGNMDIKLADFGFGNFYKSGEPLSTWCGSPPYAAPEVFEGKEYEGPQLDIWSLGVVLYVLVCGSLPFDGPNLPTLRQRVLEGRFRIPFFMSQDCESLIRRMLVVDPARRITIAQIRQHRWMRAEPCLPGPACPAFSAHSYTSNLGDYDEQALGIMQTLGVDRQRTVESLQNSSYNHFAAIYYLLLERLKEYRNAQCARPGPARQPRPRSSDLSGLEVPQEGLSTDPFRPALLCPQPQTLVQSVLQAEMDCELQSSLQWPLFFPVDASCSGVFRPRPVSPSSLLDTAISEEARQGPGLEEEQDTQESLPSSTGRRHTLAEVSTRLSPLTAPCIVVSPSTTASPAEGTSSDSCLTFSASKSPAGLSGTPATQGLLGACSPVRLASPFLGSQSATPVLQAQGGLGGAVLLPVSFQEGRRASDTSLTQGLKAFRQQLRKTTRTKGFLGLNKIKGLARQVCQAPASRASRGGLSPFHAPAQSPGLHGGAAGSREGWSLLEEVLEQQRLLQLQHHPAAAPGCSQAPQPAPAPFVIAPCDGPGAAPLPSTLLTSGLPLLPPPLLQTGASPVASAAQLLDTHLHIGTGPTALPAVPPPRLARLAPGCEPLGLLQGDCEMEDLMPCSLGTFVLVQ
Chain of Tyrosine-protein kinase ABL1 (Homo sapiens) (P00519 whole entry): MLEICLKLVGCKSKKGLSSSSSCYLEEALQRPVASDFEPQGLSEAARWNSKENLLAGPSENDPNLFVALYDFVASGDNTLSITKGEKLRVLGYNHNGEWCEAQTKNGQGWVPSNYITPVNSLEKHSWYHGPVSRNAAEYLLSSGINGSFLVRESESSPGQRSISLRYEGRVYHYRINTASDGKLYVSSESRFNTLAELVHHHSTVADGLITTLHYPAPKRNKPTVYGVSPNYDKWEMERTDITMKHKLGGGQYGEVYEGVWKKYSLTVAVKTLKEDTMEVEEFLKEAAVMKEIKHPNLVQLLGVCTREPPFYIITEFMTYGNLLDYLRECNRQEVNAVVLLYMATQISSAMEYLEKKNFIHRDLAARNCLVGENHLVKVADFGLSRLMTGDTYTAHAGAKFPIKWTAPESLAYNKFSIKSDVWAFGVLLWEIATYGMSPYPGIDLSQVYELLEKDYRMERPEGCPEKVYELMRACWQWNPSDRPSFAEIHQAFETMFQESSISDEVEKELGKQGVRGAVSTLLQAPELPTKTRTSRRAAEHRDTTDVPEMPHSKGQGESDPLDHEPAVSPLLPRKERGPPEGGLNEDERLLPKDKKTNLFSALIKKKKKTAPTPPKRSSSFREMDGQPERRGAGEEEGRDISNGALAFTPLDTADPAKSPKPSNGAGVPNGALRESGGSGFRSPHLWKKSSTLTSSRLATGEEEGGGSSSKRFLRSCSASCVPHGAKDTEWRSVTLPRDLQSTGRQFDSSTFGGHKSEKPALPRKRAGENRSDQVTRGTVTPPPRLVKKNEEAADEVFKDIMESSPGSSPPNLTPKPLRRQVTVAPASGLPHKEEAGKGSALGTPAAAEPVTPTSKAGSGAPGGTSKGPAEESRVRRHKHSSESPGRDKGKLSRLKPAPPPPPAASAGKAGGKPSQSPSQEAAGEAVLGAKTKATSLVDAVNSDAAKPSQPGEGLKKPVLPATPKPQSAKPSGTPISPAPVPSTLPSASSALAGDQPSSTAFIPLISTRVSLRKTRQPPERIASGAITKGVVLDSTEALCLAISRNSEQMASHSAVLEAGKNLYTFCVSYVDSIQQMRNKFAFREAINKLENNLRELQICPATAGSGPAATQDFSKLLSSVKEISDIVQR
Chain of Cytoplasmic tyrosine-protein kinase BMX (Homo sapiens) (P51813 whole entry): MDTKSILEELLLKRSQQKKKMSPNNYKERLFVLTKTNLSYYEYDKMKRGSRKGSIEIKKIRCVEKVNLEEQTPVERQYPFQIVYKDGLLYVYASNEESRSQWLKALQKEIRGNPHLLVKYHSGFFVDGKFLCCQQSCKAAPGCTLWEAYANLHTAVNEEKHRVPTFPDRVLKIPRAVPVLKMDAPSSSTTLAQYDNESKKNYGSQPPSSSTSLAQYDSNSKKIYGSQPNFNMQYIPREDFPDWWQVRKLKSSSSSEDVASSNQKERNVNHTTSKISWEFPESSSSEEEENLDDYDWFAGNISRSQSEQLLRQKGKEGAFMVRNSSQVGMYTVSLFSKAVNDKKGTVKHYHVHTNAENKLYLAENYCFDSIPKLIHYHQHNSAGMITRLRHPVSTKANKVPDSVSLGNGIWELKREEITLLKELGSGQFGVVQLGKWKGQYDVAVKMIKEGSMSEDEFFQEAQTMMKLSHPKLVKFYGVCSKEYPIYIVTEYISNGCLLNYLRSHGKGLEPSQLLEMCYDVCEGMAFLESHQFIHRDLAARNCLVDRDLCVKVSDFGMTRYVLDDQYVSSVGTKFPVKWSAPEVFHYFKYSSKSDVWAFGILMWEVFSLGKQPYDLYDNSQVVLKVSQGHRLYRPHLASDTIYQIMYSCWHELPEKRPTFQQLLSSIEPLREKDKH
Chain of Tyrosine-protein kinase Tec (Homo sapiens) (P42680 whole entry): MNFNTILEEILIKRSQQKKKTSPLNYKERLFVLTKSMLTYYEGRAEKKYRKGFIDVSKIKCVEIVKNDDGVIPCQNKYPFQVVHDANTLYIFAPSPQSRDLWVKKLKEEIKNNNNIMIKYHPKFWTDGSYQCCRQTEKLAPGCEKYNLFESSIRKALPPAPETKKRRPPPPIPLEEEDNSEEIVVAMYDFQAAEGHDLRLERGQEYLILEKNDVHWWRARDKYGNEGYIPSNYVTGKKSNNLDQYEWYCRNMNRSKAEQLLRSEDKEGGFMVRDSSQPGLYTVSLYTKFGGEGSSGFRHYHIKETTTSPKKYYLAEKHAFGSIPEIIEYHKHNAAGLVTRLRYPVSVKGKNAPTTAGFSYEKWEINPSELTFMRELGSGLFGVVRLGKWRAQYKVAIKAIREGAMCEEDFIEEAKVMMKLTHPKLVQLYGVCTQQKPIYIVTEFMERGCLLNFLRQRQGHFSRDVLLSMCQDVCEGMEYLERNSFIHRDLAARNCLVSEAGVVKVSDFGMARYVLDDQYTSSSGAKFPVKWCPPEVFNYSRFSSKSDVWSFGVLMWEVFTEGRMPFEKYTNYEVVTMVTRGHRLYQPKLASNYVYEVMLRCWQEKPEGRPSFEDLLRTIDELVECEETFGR

**Q.** With `Cc1cccc(F)c1NC(=O)c1cnc(Nc2ccc(N3CCN(C)CC3)c(F)c2)nc1NC1CCC1` as the compound, how does the pIC50 [1] read?
**A.** 7.62

**Q.** And the Cmax [2]?
**A.** 12000 ng/mL

**Q.** What about the Activity (Mus musculus [3]) of the same compound?
**A.** Active

**Q.** What about the Activity (Mus musculus [4]) of the same compound?
**A.** Active

**Q.** And the inhibition [5]?
**A.** Active

**Q.** What about the inhibition [6] of the same compound?
**A.** inactive

**Q.** And the inhibition [7]?
**A.** Active

**Q.** What about the inhibition [8] of the same compound?
**A.** Active

**Q.** And the bioavailability [9]?
**A.** 23%

**Q.** What about the half-life [10] of the same compound?
**A.** 1030 min

**Q.** And the CL/F [11]?
**A.** 11.7 mL/min/kg

**Q.** What about the inhibition [12] of the same compound?
**A.** Active

**Q.** What about the clearance [13] of the same compound?
**A.** 3.33 mL/min/kg

**Q.** What about the half-life [14] of the same compound?
**A.** > 120 min

**Q.** What about the inhibition [15] of the same compound?
**A.** Active

**Q.** And the inhibition [16]?
**A.** Active

**Q.** What about the AUC(0-t) at 24 h [17] of the same compound?
**A.** 9340 ng·h/mL

**Q.** What about the fraction unbound at 8 h, 10 µM [18] of the same compound?
**A.** 0.206

**Q.** What about the Tmax [19] of the same compound?
**A.** 6 min

**Q.** And the inhibition [20]?
**A.** Active

**Q.** What about the inhibition [21] of the same compound?
**A.** Active

**Q.** What about the inhibition [22] of the same compound?
**A.** Active

**Q.** And the Ratio IC50 [23]?
**A.** 3

**Q.** What about the half-life [24] of the same compound?
**A.** 690 min

**Q.** And the inhibition [25]?
**A.** inactive

**Q.** And the AUC(0-t) at 24 h [26]?
**A.** 20300 ng·h/mL

**Q.** What about the Tmax [27] of the same compound?
**A.** 8 h

**Q.** What about the Activity [28] of the same compound?
**A.** Toxic

**Q.** And the inhibition [29]?
**A.** Active
